Test results reported in US20250025438A1, “Derivative of aspartic acid and use thereof in treatment of metabolic diseases such as hepatic fibrosis and non-alcoholic hepatitis” (SHENZHEN JINGTAI TECHNOLOGY CO., LTD., priority 2021, published 2025).
Where a name gives a salt, the structure may show the parent alone.

Assays:
NAFLD induced by HFD = assay: Mouse NAFLD model induced by HFD, H&E staining; type: in vivo, C57BL/6J male mice; conditions: HFD diet mice, 10, 50, 150 mg/kg by gavage bid, 8 weeks, vs untreated group, FIG. 9
Procedure: (§1) • (1) C57BL/6J male mice aged 6 to 8 weeks were selected and randomly divided into normal diet group (n=10) and HFD or CHOL group; the weight changes of the mice were recorded during the modeling period, and the modeling was conducted for 8 weeks (CHOL) or 10 weeks (HFD), then the mice in the HFD or CHOL group were randomly divided into groups according to their body weights, plus the negative control group, a total of 5 groups:
(§2) (2) Mice in the negative control group (n=10): The animals were fed with normal diet, and 200 μL of drinking water was administered by gavage, bid.
(§3) Mice in HFD or CHOL group (n=10): The animals were fed with HFD or CHOL diet, and 200 μL of normal saline was administered by gavage at the same time, bid. (Note: HFD (60% high fat) feed (Whitby Technology Development (Beijing) Co., Ltd.) (D12492), CHOL (40% high fat +1.25% cholesterol) feed (Whitby Technology Development (Beijing) Co., Ltd.) (D12108C)) (3) Mice in Compound 6-low dose group (n=10): The animals were fed with HFD or CHOL diet, and administrated simultaneously with Compound 6 at a dose of 10 mg/kg by gavage, bid.
(§4) (4) Mice in Compound 6-middle dose group (n=10): The animals were fed with HFD or CHOL diet, and administrated simultaneously with Compound 6 at a dose of 50 mg/kg by gavage, bid. […]

NAFLD induced by CHOL = assay: Mouse NAFLD model induced by CHOL, H&E staining; type: in vivo, C57BL/6J male mice; conditions: CHOL diet mice, 10, 50, 150 mg/kg by gavage bid, 8 weeks, vs untreated group, FIG. 10
Procedure: as §1, §2, §3, §4

collagen I = assay: Activated LX2 cells (TGFβ1), Western blot: Collagen I; type: cell-based; conditions: LX2 cells stimulated with TGFβ1 (5 ng/mL), 24 hours, FIG. 4
α-SMA = assay: Activated LX2 cells (TGFβ1), Western blot: α-SMA; type: cell-based; conditions: LX2 cells stimulated with TGFβ1 (5 ng/mL), 24 hours, FIG. 4

| Compound | lipid droplet aggregation in the liver tissue of mice (H&E) (NAFLD induced by HFD) | lipid droplet aggregation in the liver tissue of mice (H&E) (NAFLD induced by CHOL) | expression of Collagen I in the cells (collagen I) | expression of α-SMA in the cells (α-SMA) |
| --- | --- | --- | --- | --- |
| COC(=O)C[C@H](N)C(=O)O [Compound 6] | reduced in a dose-dependent manner | reduced in a dose-dependent manner |  |  |
| COC(=O)C[C@H](N)C(=O)OCOC(=O)[C@@H](N)CC(=O)OC [Compound 54, 4-dimethyl O′1,01-methylene (2S,2'S)-bis (2-aminosuccinate) hydrochloride] |  |  | significantly decreased | significantly decreased |
